Consider 3 molecules from patent publication US4304853A, “Method of determination for proteases and antiproteases” (priority 1979, dated 1981).

Molecules are shown by their SMILES. Counter-ions that a name gives are not always drawn. Like-named read-outs stand apart in the source and are kept apart here.

For orientation: Km means the substrate concentration at which the rate is half of its maximum.

One assay relates to thrombin. Put plainly: Amperometric determination of substrate hydrolysis by thrombin (oxidation current of liberated amine). It counts as biochemical. The procedure:
(§1) (a) A potentiostat, which is intended to maintain a constant potential difference between the measurement electrode and the reference electrode. A saw-tooth function generator, which generates a potential which varies between -0.1 and +0.4 V at a rate of 0.2 V/second. A graphic recorder with a good dynamic performance. A polytetrafluoroethylene cell which has a capacity of 5 ml and can hold three electrodes.
(§2) (e) Solutions: The stock solutions of the enzyme (solution E) and of the substrate (solution S) are freshly prepared. The test solution, to which a given amount of E is added at the time t=0 of the kinetics, is termed A. The buffer, which has a pH of 8.15, is made up of 0.025 M Veronal^(R) and NaCl with an ionic strength of F=0.15.
(§3) (f) Example of an electrode made of carbon paste: 15 g of pure carbon powder are mixed with 9 ml of paraffin oil, for example that sold commercially under the trade name Nujol^(R). An electrode with a surface area of 0.16 cm^2 and a thickness of 3 mm can be shaped from the homogeneously mixed paste.
(§4) The measurement electrode is preconditioned in solution A without the enzyme, in order to impart to it a reproducible and precisely defined surface state before each cycle.
(§5) The preconditioning is achieved by applying a potential which has a saw-tooth profile and changes as a function of time, the potential varying between -0.1 and +b 0.4 V and changing at a rate of 0.2 V/second.
(§6) The electrode can then be used for the kinetic determinations, for which purpose the same saw-tooth potential as for the conditioning is applied every 60 seconds.
After deducting the base current at the particular potential, the current levels recorded at the maximum value of any one wave i=f(U) are proportional to the concentration of the electroactive species liberated during the hydrolysis. In the case of short hydrolysis times, a plot of the current levels against time is linear. The relationship between the enzyme concentration E (in μg/ml) and the rate of hydrolysis at time 0 (represented by the ratio (di/dt)o in μA/minute, that is to say by the gradient of the curve i=f (t) at the origin) for an electrode with a surface area of 1 cm^2 is given by the following formula: […]
The procedure is similar to that for trypsin and is also suitable for the determination of further enzymes, also with the aid of other substrates.
These constants (summarized in Table II below) have been obtained with the aid of the electrode prepared in accordance with Example I f).

For a further assay, the system named is trypsin. Briefly: Amperometric determination of substrate hydrolysis by trypsin (oxidation current of liberated pADA). Format: biochemical. The procedure:
as §1
(b) Measurement electrode: This consists of a platinum plate which is surrounded by a cylinder of polytetrafluoroethylene (surface area 0.0314 cm^2).
as §2, §3, §4, §5, §6
After deducting the base current at the particular potential, the current levels recorded at the maximum value of any one wave i=f(U) are proportional to the concentration of the electroactive species liberated during the hydrolysis. […]
The enzyme solution is added at the end of the potentiodynamic cycle which serves to record the base current (the base current has been shifted downwards; it is represented by the broken line). The concentrations corresponding to the current maxima can be read off from the calibration curve (FIG. 3). The conversion is determined as a function of time (maximum 30 minutes). […]
The reciprocal value of the rate (1/V) has been plotted as the ordinate and the reciprocal value of the concentration of the substrate (1/S) has been plotted as the abscissa. The reciprocal value of the rate 1/V was expressed as follows: either as (μA/minute--10 μg of enzyme)^-1 or as (μ mol×10^3 of pADA/minute--10 μg of enzyme). The points o represent an average value of 10 measured values for the rate and the points X represent a graphical average value. […]

[1] abbreviates: carbon paste electrode, buffer a: Tris (0.025 M), NaCl (0.12 M), glycine (0.05 M), DMSO 4.76%, 20° C., pH 8.3.
The mark [2] stands for this setting: carbon paste electrode, buffer a: Tris (0.025 M), NaCl (0.12 M), glycine (0.05 M), DMSO 4.76%, 20° C., pH 8.3, read-out: KM: Michaelis constant.

With `N=C(N)NCCC[C@H](NC(=O)[C@@H]1CCCCN1C(=O)[C@H](N)Cc1ccccc1)C(=O)Nc1ccc(Nc2ccccc2)cc1` [HDL, H-D-phenylalanyl-L-pipecolyl-L-arginyl-p-amino-diphenylamide dihydrochloride], the “Standardization: current after hydrolysis for one minute” value with thrombin (0.1 mM of substrate with 0.01 I.U. of thrombin for one minute, Veronal buffer) is on record as 0.217 μA/cm^2. Besides, the “VM: maximum rate” value in the assay with thrombin (setting [1]) was found to be 0.10 μmole/minute I.U. Further, the Km is 10 µM with thrombin (setting [2]) and 10 µM in the assay on thrombin (hydrolysis with thrombin, procedure similar to that for trypsin, Veronal buffer, read-out: Km). In the assay with thrombin (hydrolysis with thrombin, procedure similar to that for trypsin, Veronal buffer), the Vm is 1.1×10^-7 moles/minute×I.U.

Consider `COc1cc(NC(=O)[C@H](CCCNC(=N)N)NC(=O)[C@@H]2CCCCN2C(=O)[C@H](N)Cc2ccccc2)cc2ccccc12` [H--D--Phe--Pip--Arg--4--MBNA], for which, in the assay on thrombin (setting [1]), the “VM: maximum rate” value is reported as 0.020 μmole/minute I.U. In the assay on thrombin (setting [2]), the Km was determined as 37 µM.

For the molecule `N=C(N)NCCCC(NC(=O)c1ccccc1)C(=O)Nc1ccc(Nc2ccccc2)cc1` (racemic) [D,L-BAPADA, benzoyl-D,L-arginine-p-aminodiphenyl-amide, HCl], the “VM: maximum rate” value in the assay with trypsin (carbon paste electrode, buffer b: Veronal (0.025 M), NaCl (0.12 M), DMSO 6.35%, 30° C., pH 8.4) is listed as 0.00096 μmole/minute I.U. Also, the Michaelis-Menten constant (Km) with trypsin (carbon paste electrode, buffer b: Veronal (0.025 M), NaCl (0.12 M), DMSO 6.35%, 30° C., pH 8.4, read-out: KM: Michaelis constant) was 800 µM; in the assay on trypsin (hydrolysis with trypsin 10 μg/ml, 30° C., pH 8.15 (TRIS), DMSO 6.35%, LINEWEAVER-BURK diagram FIG. 7, read-out: MICHAELIS-MENTEN constant Km) it was 800 µM. Further, the “Standardization: current after hydrolysis for one minute” value in the assay with trypsin (hydrolysis of the substrate with 1 mM of trypsin for one minute, per cm^2 of electrode surface area, Veronal buffer pH 8.15) is 0.295 μA/cm^2.
